Earlier results as cited in patent US20250090612A1, “FEED ADDITIVE COMPOSITIONS AND METHODS OF USE” (PMI Nutrition, LLC, priority 2021, published 2025).

Test system: C. elegans
Settings: C. elegans assay

urolithins
concentration needed to obtain a positive effect on muscle function: 50 µM | concentration required to trigger the muscle function response: 11.4 µg/mL
